Experimental data from paper PMC4215638, “J-147 a Novel Hydrazide Lead Compound to Treat Neurodegeneration: CeeTox™ Safety and Genotoxicity Analysis” (Journal of neurology & neurophysiology, 2013).

Assays:
[1] = system: rat hepatoma (H4IIE) cell line; assay: Intracellular glutathione (GSH) levels; format: cell-based; conditions: H4IIE cells; for Percent Change in Total GSH: decrease indicated by (−), increase by (+)
Method: (§1) Rat hepatoma derived H4IIE cells were used as the test system because the cell have a rapid doubling time in culture (i.e. 22 hours). The culture medium used for these cells was Eagles Minimum Essential Medium (MEM) with 10% bovine serum and 10% calf serum (Invitrogen). H4IIE cells were seeded into 96-well plates and allowed to equilibrate for approximately 48 hr before drug assay to allow cells to move into a stable growth phase prior to treatment. Following the equilibration period the cells were exposed to J-147 at concentrations of 1–300 μM. Three to 7 replicates were done for each assay to construct concentration-response curves. Solubility was determined by Nephalometry techniques immediately after dosing and prior to harvesting the cells at 6 or 24 hr. Following the incubation period, cells or their supernatant (culture medium) were analyzed for changes in cell proliferation (cell mass), membrane leakage, mitochondrial function, oxidative stress, and apoptosis. The resultant exposure concentration response curves were graphed and analyzed for determining the concentration that produced a half maximal response or TC50 [28, 30].
Intracellular glutathione levels were determined as described previously. Briefly, the sulfhydryl group of GSH reacts with DTNB (5,5′-dithio-bis-2-nitrobenzoic acid, Ellman’s reagent) and produces a yellow colored 5-thio-2-nitrobenzoic acid (TNB). The mixed disulfide, GSTNB (between GSH and TNB) that is concomitantly produced, is reduced by glutathione reductase to recycle the GSH and produce more TNB. The rate of TNB production is directly proportional to the concentration of GSH in the sample. Measurement of the absorbance of TNB at 405 or 412 nm provides an accurate estimation of GSH in the sample. At the end of the exposure period, the medium was removed from the cells and metaphosphoric acid (MPA) was added to each well. Plates were then shaken for 5 min at room temperature and stored at −20°C until needed. The sample plates were thawed just prior to analysis and centrifuged at > 2000 × g for 2 min. Sample aliquots were removed and transferred to a clean 96-well plate along with appropriate standard curve controls. Sample pH was neutralized just prior to analysis and each well received an aliquot of PBS reaction buffer containing Ellman’s reagent, NADPH, and glutathione reductase. The plates were shaken for 15–30 min at room temperature and glutathione content was determined colorimetrically with a Packard Fusion reader at 415 nm. The assay is based on the concept that all GSH is oxidized to GSSG by DTNB reagent. Two molecules of GSH are required to make one molecule of GSSG (oxidized glutathione). Total GSH was determined by reducing GSSG to 2GSH with glutathione reductase. A standard curve was prepared with oxidized glutathione (GSSG) over a range of concentrations. These concentrations are then converted to glutathione equivalents (GSX) essentially by multiplying the GSSG standard concentrations by 2. The amount of GSX expressed as pmoles/well was determined using the standard curve and regression analysis and are expressed as percent of control;

dopamine transporter = system: dopamine transporter; parameters: method as in PMID 23673233; conditions: read-out: EC50 dopamine transporter inhibition; cited from earlier work
Caspase 3 in H4IIE cells = assay: Apoptosis: caspase 3 activity (DEVD-AMC); format: cell-based, rat
Method: as §1
Caspase 3 activity was determined using a caspase substrate (DEVD, Asp-Glu-Val-Asp) labeled with a fluorescent molecule, 7-Amino-4-methylcoumarin (AMC). Caspase 3 cleaves the tetrapeptide between D and AMC, thus releasing the fluorogenic green AMC [28]. Following the test article exposure to cells in 96-well plates, medium was aspirated from plates and PBS added to each well. Plates were stored at −80°C to lyse cells and store samples until further analysis. On the day of analysis, plates were removed from freezer and thawed. […] AMC release was measured in a spectrofluorometer at an excitation wavelength of 360 nm and an emission wavelength of 460 nm. Values are expressed as relative fluorescent units (RFU). […]

MAOB = system: MAOB; parameters: method as in PMID 23673233; conditions: read-out: EC50 MAOB inhibition; cited from earlier work
[2] = Drug solubility in culture medium (light scattering, Nepheloskan); format: physicochemical; conditions: complete culture medium with serum; medium with 10% bovine serum and 10% calf serum, 37°C; read-out: Solubility in the culture medium system
Method: The final concentration of DMSO in the 0–100 μM solutions was 0.5% and at the 300 μM solution DMSO was 1.5%. The final dosing solutions were prepared in Eagles Minimum Essential Medium. All experiments that used DMSO as the drug solvent also included a DMSO negative control. Negative controls of medium plus DMSO (0.5%) were included with and without cells. A positive control for complete cell death received 1 mM digitonin in medium on the day of dosing.
The samples were evaluated using light scattering with a Nepheloskan instrument. A reading that was greater than or equal to 3 times background was considered the limit of solubility.

HT22 and primary cell = system: HT22 and primary cell; parameters: method as in PMID 22194796, PMID 23673233; conditions: HT22 and primary cortical cells, IAA or glutamate toxicity; read-out: EC50 neuroprotection (cell survival); cited from earlier work
[3] = Microsomal metabolic stability; format: in vitro ADME; conditions: 30 minutes at 37°C, rat microsomes
Method: Metabolic stability was conducted using pooled microsomes from non-induced male Sprague-Dawley rats. J-147 was incubated for 30 minutes at 37°C at concentrations of 1 μM. Subsequent HPLC analysis using a Waters Alliance 2795 in combination with a Waters Quattro Premier mass spectrometer measured disappearance of the parent molecule. The compounds were run on a Waters X-BridgeC18 (186003021) 50 × 2.1 mm column with 3.5 micron particle packing at a flow rate of 1 ml/min and with the temperature maintained at 50°C. Solvent A was water with 0.1% formic acid. Solvent B was acetonitrile with 0.07% formic acid. The data for 3 replicates are expressed as percent of parent remaining.

AD mouse = system: AD mouse; parameters: method as in PMID 23673233; conditions: cited from earlier work
[4] = system: low-density cultured rat cortical neurons; conditions: previously published; read-out: EC50 neurotrophism; cited from earlier work

COc1cccc(/C=N/N(C(=O)C(F)(F)F)c2ccc(C)cc2C)c1 [J-147, (E)-N-(2,4-Dimethylphenyl)-2,2,2-trifluoro-N′-(3-methoxybenzylidene) acetohydrazide]
Total GSH TC50 [1]: 217000 nM | Percent Change in Total GSH [1]: −84.9% | EC50 (dopamine transporter): 650 nM | Effect on caspase-3 activity (Caspase 3 in H4IIE cells): did not affect | EC50 (MAOB): 1880 nM | solubility [2]: ≥ 300 µM | EC50 (HT22 and primary cell): 60 to 115 nM | Metabolism Ranking ([3]; 1 μM): High (<45=high) | remaining at 0.5 h, 1 μM ([3]; male, Sprague-Dawley, pooled microsomes from non-induced rats, percent of parent remaining): 12% | Safety and memory impairment after chronic administration (AD mouse): safe and beneficial to reduce memory impairment | EC50 [4]: 25 nM

C=C(C)[C@H]1Cc2c(ccc3c2O[C@@H]2COc4cc(OC)c(OC)cc4[C@@H]2C3=O)O1 [Rotenone, rotenone]
Total GSH TC50 [1]: 300 nM | Percent Change in Total GSH [1]: −100.0%

CC[C@@]1(O)C(=O)OCc2c1cc1n(c2=O)Cc2cc3ccccc3nc2-1 [Camptothecin, camptothecin]
Total GSH TC50 [1]: 3900 nM | Percent Change in Total GSH [1]: −64.5% | Caspase 3 Activity (Index/Dose): dose (Caspase 3 in H4IIE cells; dose part of cell): 1 (0–200=1) | Caspase 3 Activity (Index/Dose): index (Caspase 3 in H4IIE cells; index part of cell): 3 (400–600=3)
